Key:
[1] = tested on: cytochrome P450; assay: in vivo activity (inhibition of cytochrome P450 activity)
[2] = tested on: cytochrome P450; assay: in vitro inhibition of cytochrome P450 activity; type: biochemical

| inhibition of cytochrome P450 activity [2] | SMILES | in vivo activity compared with 10-undecinyl acid [1] |
| --- | --- | --- |
| comparably high inhibition | C#CCCCCCCCCC(C)(C)C(=O)O [2,2-dimethyl-11-dodecinyl acid] | far superior in vivo |
| comparably high inhibition | C#CCCCCCCCCC(=O)O [10-undecinyl acid] |  |
